Data as given in ChEMBL document CHEMBL1129196, “Studies on the structural feature of S'1 subsite of neprilysin (EC.3.4.24.11): Stereochemical requirement for the enzyme-inhibitor docking process” (Bioorg Med Chem Lett, 1996).

How the values were obtained:
Neprilysin = Neprilysin (Homo sapiens, UniProt P08473); assay: Compound was evaluated for inhibition of recombinant human neprilysin(NEP).
[1] = target: T1, Angiotensin-converting enzyme (Rattus norvegicus, UniProt P47820); assay: Compound was measured for the inhibition of Angiotensin I converting enzyme
T1 sequence (P47820 whole entry): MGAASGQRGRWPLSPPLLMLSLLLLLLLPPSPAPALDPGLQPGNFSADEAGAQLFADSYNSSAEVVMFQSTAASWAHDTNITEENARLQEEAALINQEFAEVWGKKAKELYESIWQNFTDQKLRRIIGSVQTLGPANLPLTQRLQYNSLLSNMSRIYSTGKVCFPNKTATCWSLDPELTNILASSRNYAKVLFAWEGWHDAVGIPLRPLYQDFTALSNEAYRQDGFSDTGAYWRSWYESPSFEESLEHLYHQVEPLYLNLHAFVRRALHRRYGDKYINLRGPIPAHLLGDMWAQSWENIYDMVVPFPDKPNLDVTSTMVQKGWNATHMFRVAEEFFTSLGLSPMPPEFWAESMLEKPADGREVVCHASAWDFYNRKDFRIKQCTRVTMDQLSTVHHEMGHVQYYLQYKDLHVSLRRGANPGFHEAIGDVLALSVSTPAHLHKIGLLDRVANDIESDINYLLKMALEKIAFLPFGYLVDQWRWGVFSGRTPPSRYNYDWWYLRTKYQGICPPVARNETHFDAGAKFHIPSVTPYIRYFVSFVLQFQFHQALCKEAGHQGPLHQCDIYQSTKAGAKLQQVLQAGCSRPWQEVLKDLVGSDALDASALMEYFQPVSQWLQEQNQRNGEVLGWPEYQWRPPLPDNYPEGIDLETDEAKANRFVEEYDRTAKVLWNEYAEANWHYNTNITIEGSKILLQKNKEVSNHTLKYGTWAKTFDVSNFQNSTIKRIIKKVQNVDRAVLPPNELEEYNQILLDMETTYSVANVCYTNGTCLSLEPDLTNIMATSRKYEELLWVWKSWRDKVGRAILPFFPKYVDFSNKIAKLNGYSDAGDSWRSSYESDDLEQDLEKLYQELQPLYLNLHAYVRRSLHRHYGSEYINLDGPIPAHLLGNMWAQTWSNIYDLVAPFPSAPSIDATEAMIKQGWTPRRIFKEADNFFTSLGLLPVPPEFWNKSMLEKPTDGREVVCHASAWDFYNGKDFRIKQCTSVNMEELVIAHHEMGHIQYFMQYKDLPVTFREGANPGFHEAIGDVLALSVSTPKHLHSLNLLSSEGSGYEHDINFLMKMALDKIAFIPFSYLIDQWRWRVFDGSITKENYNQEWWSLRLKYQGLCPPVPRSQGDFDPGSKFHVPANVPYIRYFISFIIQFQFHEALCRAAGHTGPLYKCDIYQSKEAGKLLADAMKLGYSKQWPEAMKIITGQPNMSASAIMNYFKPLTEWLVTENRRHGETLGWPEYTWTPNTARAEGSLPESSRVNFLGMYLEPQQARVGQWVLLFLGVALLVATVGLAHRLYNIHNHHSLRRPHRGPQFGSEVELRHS

Neprilysin, sequence (P08473 whole entry): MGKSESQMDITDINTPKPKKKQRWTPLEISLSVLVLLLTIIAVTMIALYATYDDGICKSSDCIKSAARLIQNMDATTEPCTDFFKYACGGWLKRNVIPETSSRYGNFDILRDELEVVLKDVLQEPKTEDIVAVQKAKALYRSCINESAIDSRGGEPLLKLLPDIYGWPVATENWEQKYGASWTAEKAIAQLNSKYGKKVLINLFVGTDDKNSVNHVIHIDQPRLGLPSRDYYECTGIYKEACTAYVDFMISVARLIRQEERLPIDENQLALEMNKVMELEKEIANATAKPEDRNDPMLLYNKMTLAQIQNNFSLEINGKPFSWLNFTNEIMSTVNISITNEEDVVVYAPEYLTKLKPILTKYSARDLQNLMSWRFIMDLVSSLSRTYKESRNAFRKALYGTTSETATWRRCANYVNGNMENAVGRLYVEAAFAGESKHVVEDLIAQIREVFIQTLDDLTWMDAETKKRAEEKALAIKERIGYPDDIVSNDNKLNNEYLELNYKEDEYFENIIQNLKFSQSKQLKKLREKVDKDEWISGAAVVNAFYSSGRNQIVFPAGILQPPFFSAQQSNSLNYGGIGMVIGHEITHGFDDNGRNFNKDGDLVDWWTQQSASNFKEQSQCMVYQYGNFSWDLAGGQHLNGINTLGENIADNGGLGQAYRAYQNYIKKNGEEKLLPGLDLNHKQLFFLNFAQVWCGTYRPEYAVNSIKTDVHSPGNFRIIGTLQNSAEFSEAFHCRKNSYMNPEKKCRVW

SMILES | Ki (Neprilysin) [nM] | Ki [1] [nM]
O=C(O)CNC(=O)C(CS)(Cc1ccccc1)Cc1ccccc1 | > 100 | –
O=C(O)CNC(=O)/C(=C/c1ccccc1)CS | 408 | –
O=C(O)CNC(=O)/C(=C\c1ccccc1)CS | 4.9 | 380
O=C(O)CNC(=O)C1(CS)Cc2ccccc2C1 | 162 | –
